Source: US20250283885A1, “MODULAR BIOSENSOR FOR RECEPTOR TYROSINE KINASE ACTIVITY” (The Trustees of Princeton University, priority 2024, published 2025)

Legend:
[1] = system: ErbB2; experiment: ErbB2 pYtag (with EGFR-Citrine) in NIH 3T3 cells: clearance of cytosolic ZtSH2; type: cell-based; details: NIH 3T3, required ITAMs on ErbB2 and co-expression of EGFR
Description: One advantage of the pYtag approach is its modularity: ITAMs can in principle be fused to the C-termini of many different RTKs and recruit ZtSH2 upon stimulation. Therefore, it was tested whether pYtags could be adapted to monitor the activity of receptors other than EGFR. pYtag biosensors were designed for two additional RTKs: 1) ErbB2, a ligandless member of the ErbB family that signals by heterodimerizing with ligand-bound EGFR; and 2) fibroblast growth factor receptor 1 (FGFR1), a non-ErbB family RTK. ErbB2 is a particularly challenging RTK to study because it can only be activated in conjunction with an additional RTK (e.g., EGFR), so Grb2-based biosensors would be unable to distinguish between the activity of EGFR and ErbB2.
Starting from NIH 3T3 cells expressing iRFP-ZtSH2, cell lines expressing either an ErbB2 pYtag (ErbB2-CD3ε-FusionRed), an FGFR1 pYtag (FGFR1-CD3ε-FusionRed), or ITAM-less variants of each were generated. For the ErbB2 case, cells with EGFR-Citrine were further transduced to express both required components of a functional receptor heterodimer (see FIG. 3, and FIGS. 4A-4B).
The pYtag approach is indeed modular, and this strategy can be readily adapted for monitoring the activation of distinct RTKs in individual cells.

[2] = system: ErbB2; experiment: Multiplexed pYtags in NIH 3T3 cells: ErbB2 reporter (iRFP-ZtSH2; ErbB2-CD3ε-FusionRed); type: cell-based; details: 100 ng/mL
Excerpt: Having characterized an orthogonal pair of pYtags, it was recognized that these biosensors could be used to simultaneously monitor the activation of both EGFR and ErbB2. NIH 3T3 cells that co-expressed pYtags for EGFR (Clover-VISH2; EGFR-SLP76-BFP) and ErbB2 (iRFP-ZtSH2; ErbB2-CD3ε-FusionRed) were generated. […] VISH2 cleared from the cytosol almost immediately (<30 sec), indicating rapid phosphorylation of the EGFR C-terminal tail. […] Although the absolute magnitude of tSH2 biosensor clearance varied between cell lines (likely due to differences in affinity and expression level), the dynamics of EGFR and ErbB2 activation were highly reproducible in all cases, irrespective of the cell line or pYtag.

[3] = system: EGFR and Erk signaling; experiment: EGFR pYtag and ErkKTR in MCF10A clusters on soft substrata; type: cell-based, human
Description: At the tissue scale, the spatiotemporal distribution of RTK signaling can also be regulated by several processes including paracrine signaling, morphogen gradients, and the mechanical properties of the local microenvironment. It was therefore asked whether pYtags could be used to monitor RTK signaling in multicellular contexts.
To prepare polyacrylamide substrata, 1.5-mm-thick glass coverslips were pre-treated with glutaraldehyde. First, coverslips were treated with 0.1 N NaOH for 30 min, followed by rinsing with deionized water and air drying. Coverslips were then treated with 2% aminopropyltrimethoxysilane (Sigma Aldrich) in acetone for 30 min, washed three times with acetone, and left to air dry. Coverslips were treated with 0.5% glutaraldehyde (Sigma Aldrich) in PBS for 30 min, washed with deionized water, and left to air dry. Custom glass-bottom dishes were prepared by replacing the bottoms of 35 mm TCPS dishes with glutaraldehyde-treated coverslips, which were sealed using PDMS (Sigma Aldrich).
To investigate the dynamics of this spatial pattern, EGFR signaling was monitored using two live-cell biosensors: EGFR pYtag and a kinase translocation reporter for downstream signaling through Erk (ErkKTR).

[4] = biological target: EGFR (Homo sapiens, UniProt P00533); experiment: EGFR pYtag live-cell imaging: clearance of cytosolic ZtSH2 in NIH 3T3 cells
Description: Six ITAMs from the CD3γ, CD3δ, CD3ε, and CD3ζ chains of the TCR. In each case, three identical repeats of the ITAM were fused to the C-terminal tail of EGFR followed by the FusionRed fluorescent protein (EGFR-ITAM-FusionRed). Each receptor was the co-expressed with an iRFP-labeled ZtSH2 (iRFP-ZtSH2) in NIH 3T3 fibroblasts, which express negligible levels of EGFR. […] Because ZtSH2 can in principle be recruited rapidly on and off the membrane and may localize to distinct subcellular compartments, it was reasoned that pYtags could be used to monitor the subcellular activity of an RTK in individual cells over time.

[5] = system: EGFR R84K or A265V; experiment: pYtag response of GBM-associated mutant EGFRs in NIH 3T3 cells; type: cell-based, mouse; details: 20 ng/ml, NIH 3T3 cells expressing R84K or A265V EGFR
Excerpt: To validate the prediction of our model, the dimerization affinity of EGFR was experimentally altered and signaling responses were monitored using pYtags. One can turn to glioblastoma multiform (GBM)-associated mutations in the extracellular domain of EGFR (R84K and A265V point mutations), which were previously shown to increase the dimerization affinity of EREG- and EPGN-bound receptors. These GBM-associated mutations were first modeled in EGFR by decreasing β and γ by 6-fold and 650-fold, respectively. […] NIH 3T3 cell lines expressing pYtag biosensors of EGFR variants harboring either the R84K or A265V mutation were then generated.
The data reveal ligand-dependent EGFR signaling dynamics at unprecedented temporal resolution and point to the dimerization affinity of ligand-bound receptors as a key parameter that governs these responses. More broadly, combining pYtags with mathematical modeling can shed mechanistic insight into the signaling dynamics of RTKs.

EGF: epidermal growth factor, high-affinity EGFR ligand (NSDSECPLSHDGYCLHDGVCMYIEALDKYACNCVVGYIGERCQYRDLKWWELR; Epidermal growth factor; UniProt P01133 971-1023, looked up)
ZtSH2 response of ErbB2 pYtag-expressing cells [1]: clearance of ZtSH2 from the cytosol | Time of ZtSH2 clearance from the cytosol (ErbB2 phosphorylation) [2]: ~3 min | Delay in EGFR and Erk signaling between periphery and interior of clusters [3]: 2 to 4 min | Delay of Erk responses behind EGFR responses [3]: ~4 min

EREG: epiregulin, low-affinity EGFR ligand
pYtag signaling response of WT EGFR ([4]; 20 ng/ml, NIH 3T3 cells expressing WT EGFR): transient peak of activation and rapid plateau | EGFR activity dynamics after low-affinity ligand ([4]; varying doses, NIH 3T3 EGFR pYtag): rapid rise in EGFR activity followed by a plateau within minutes | pYtag signaling response of GBM-associated mutant EGFR [5]: stronger response that gradually increased over time
